Common to all, as to assay: DTP human tumour cell line panel, 48 h
Test [1] relates to CAKI-1.
Test [2] relates to CCRF-CEM.
Test [3] deals with DU-145.
The test system of test [4] is HCC 2998.
For test [5], the system named is HCT-116.
For test [6], the system named is HCT-15.
Test [7] has as its system HOP-62.
Test [8] relates to LOX IMVI.
Test [9] concerns MDA-N.
In test [10] the test system is NCI-H460.
The test system of test [11] is OVCAR-4.
The test system of test [12] is OVCAR-5.
The test system of test [13] is SF-539.
Test [14] has as its system SK-MEL-5.
The subject of test [15] is SK-OV-3.
The test system of test [16] is SR.
In test [17] the test system is T47D.
In test [18] the test system is TK-10.
Test [19] has as its system UO-31.

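Test compounds were applied to cells in 96-well plates for 48 hours at 5 doses. GI50: concentration for 50% inhibition of growth.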 Calls of active or inactive are those of the source. Rule as the data show it: active = GI50 up to about 1.1 µM and inactive = higher.

The term GI50 denotes the concentration giving 50% growth inhibition. `COC(=O)C1=C(C)NC(C)=C([N+](=O)[O-])C1c1cccc(NO)c1` (configuration not stated): the GI50 in test [1] was 8.38 µM (inactive); in [2], 2.34 µM (inactive); in test [3] it was 6.67 µM (inactive); in [4], 4.53 µM (inactive); in test [5], 2.37 µM (inactive); in test [6] it was 2.84 µM. For the same compound, the GI50 is 9.44 µM (inactive) in [7]; 3.5 µM (inactive) in test [8]; 1.79 µM (inactive) in test [9]; 3.37 µM (inactive) in test [10]; 6.04 µM (inactive) in test [11]; 14.7 µM (inactive) in [12]. The GI50 in test [13] is 6.11 µM (inactive); in test [14], 2.72 µM (inactive); in [15] it was 7.38 µM (inactive); in test [16] it was 2.53 µM (inactive); in test [17], 3.27 µM (inactive); in test [18] it was 5.12 µM (inactive). Moreover, in [19], the GI50 is 2.96 µM (inactive).
In the case of `COc1cc(OC)c(OC)cc1/C=N/N=C(\N)NO`, the GI50 in test [1] is > 100 µM (inactive); in test [2], > 100 µM (inactive); in test [3] it was > 100 µM (inactive); in [4] it was > 100 µM (inactive); in test [5], > 100 µM (inactive); in test [6], more than 100 µM. The GI50 in test [7], in test [8], in [9], in test [10], in test [11] and in test [12] was > 100 µM (inactive) each time. In addition, the GI50 in test [13], in [14], in [15], in [16], in test [17] and in test [18] was > 100 µM (inactive) throughout. Also, the GI50 in test [19] is > 100 µM (inactive).
In the case of `CS(=O)(=O)Nc1ccc2ccccc2c1-c1c(NS(C)(=O)=O)ccc2ccccc12`, the GI50 was > 25 µM (inactive) in [1]; > 25 µM (inactive) in [2]; > 25 µM (inactive) in [3]; > 25 µM (inactive) in test [4]; > 18.6 µM (inactive) in test [5]; more than 25 µM in test [6]. In addition, the GI50 in test [7], in test [8], in test [9], in test [10], in test [11] and in test [12] was > 25 µM (inactive) each time. Moreover, the GI50 in [13], in test [14], in [15], in test [16], in test [17] and in test [18] was > 25 µM (inactive) each time. Moreover, the GI50 in test [19] is > 25 µM (inactive).
Consider `Nc1nc(-c2ccc3ccccc3c2)cc(-c2cc(-c3ccc4ccccc4c3)nc(N)n2)n1`, for which the GI50 in [1] is > 100 µM (inactive); in test [2], > 100 µM (inactive); in test [3], > 100 µM (inactive); in test [4] it was > 100 µM (inactive); in [5], > 100 µM (inactive); in [6] it was more than 100 µM. The GI50 in test [7], in test [8], in test [9], in [10], in test [11] and in test [12] was > 100 µM (inactive) throughout. The GI50 in [13], in test [14], in [15], in test [16], in [17] and in [18] was > 100 µM (inactive) in each case. For the same compound, in test [19], the GI50 is > 100 µM (inactive).
With `CCOC(=O)c1ccc(C(=O)OCC)n1-c1cc2cc(c1)CSCc1cc(cc(-n3c(C(=O)OCC)ccc3C(=O)OCC)c1)CSC2`, the GI50 in test [1] is > 10 µM (inactive); in test [2] it was > 10 µM (inactive); in test [3], > 10 µM (inactive); in test [4], > 10 µM (inactive); in [5], > 10 µM (inactive); in [6], more than 10 µM. Further, the GI50 in test [7], in [8], in test [9], in [10], in test [11] and in test [12] was > 10 µM (inactive) in each case. Moreover, the GI50 in [13], in test [14], in test [15], in test [16], in [17] and in [18] was > 10 µM (inactive) throughout. Besides, in [19], the GI50 was > 10 µM (inactive).
In the case of `Cc1ccc(/C=N/Nc2ccccn2)s1`, the GI50 in [1] is > 100 µM (inactive); in test [2], > 100 µM (inactive); in test [3], > 100 µM (inactive); in test [4], > 100 µM (inactive); in test [5] it was > 44.7 µM (inactive); in [6], more than 72.6 µM. Moreover, the GI50 is > 100 µM (inactive) in test [7]; > 50.4 µM (inactive) in [8]; > 54 µM (inactive) in [9]; > 100 µM (inactive) in test [10]; > 100 µM (inactive) in test [11]; > 100 µM (inactive) in test [12]. Also, the GI50 is > 100 µM (inactive) in test [13]; > 100 µM (inactive) in test [14]; > 100 µM (inactive) in [15]; > 100 µM (inactive) in test [16]; > 57 µM (inactive) in test [17]; > 31.6 µM (inactive) in test [18]. Further, the GI50 in test [19] is 97.7 µM (inactive).
Turning to `C[C@]12CC[C@H](O)C=C1CC[C@@H]1[C@@H]2CC[C@]2(C)C(=N/O)/C(=C/c3ccncc3)C[C@@H]12`, the GI50 in [1] is 14.9 µM (inactive); in [2], 7.96 µM (inactive); in [3], 6.34 µM (inactive); in test [4] it was 3.84 µM (inactive); in [5] it was 5 µM (inactive); in test [6], 5.19 µM. Moreover, the GI50 in test [7] is 13.2 µM (inactive); in [8], 11.5 µM (inactive); in [9], 9.51 µM (inactive); in test [10], 6.1 µM (inactive); in test [11] it was 10.1 µM (inactive); in [12], 19.2 µM (inactive). The GI50 in test [13] was 5.53 µM (inactive); in test [14], 5.01 µM (inactive); in test [15], 15.6 µM (inactive); in test [16], 3.4 µM (inactive); in [17] it was 5.38 µM (inactive); in [18], 12.4 µM (inactive). The GI50 in [19] was 3.68 µM (inactive).
`COc1cc2c(cc1OCc1ccccc1)NC(=O)[C@@H]1CCCN1C2=O`: the GI50 in test [1] was > 100 µM (inactive); in test [2], > 100 µM (inactive); in test [3], > 100 µM (inactive); in test [4] it was > 100 µM (inactive); in test [5], > 100 µM (inactive); in test [6] it was more than 100 µM. In addition, the GI50 in test [7], in [8], in [9], in test [10], in test [11] and in test [12] was > 100 µM (inactive) in each case. In addition, the GI50 in test [13], in test [14], in test [15], in test [16], in [17] and in [18] was > 100 µM (inactive) throughout. For the same compound, the GI50 in test [19] was > 100 µM (inactive).

The record behind these values is ChEMBL document CHEMBL1201862, “PubChem BioAssay data set” (2004).
